Read-outs that look alike come from different tables or passages of the source.
Columns and labels:
[1] = test system: OVCAR-3 cells; test: In vitro anti-proliferative activity assay in cancer cell line OVCAR-3 (CellTiter-Glo, 4- or 7-day); type: cell-based; conditions: Homo sapiens, read-out: OVCAR-3 cellular antiproliferation assay IC50
[2] = target: KIF18A (Homo sapiens (Human), UniProt Q8NI77); test: KIF18A Biochemical Assay (ATPase, ADP-Glo)
[3] = OVCAR-3, assay duration not indicated

Chain of KIF18A (Q8NI77 1-367): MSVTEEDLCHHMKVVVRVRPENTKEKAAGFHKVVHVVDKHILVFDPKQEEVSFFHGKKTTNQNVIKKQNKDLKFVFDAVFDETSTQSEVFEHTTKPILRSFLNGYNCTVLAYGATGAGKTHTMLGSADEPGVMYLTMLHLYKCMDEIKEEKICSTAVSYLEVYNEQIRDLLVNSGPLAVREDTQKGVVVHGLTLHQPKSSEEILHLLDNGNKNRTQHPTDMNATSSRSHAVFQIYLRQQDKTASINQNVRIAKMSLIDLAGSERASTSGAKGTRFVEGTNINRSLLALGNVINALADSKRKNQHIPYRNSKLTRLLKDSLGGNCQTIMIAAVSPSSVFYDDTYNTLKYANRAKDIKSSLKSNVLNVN
Chain of KIF18A (P02550 whole entry partner): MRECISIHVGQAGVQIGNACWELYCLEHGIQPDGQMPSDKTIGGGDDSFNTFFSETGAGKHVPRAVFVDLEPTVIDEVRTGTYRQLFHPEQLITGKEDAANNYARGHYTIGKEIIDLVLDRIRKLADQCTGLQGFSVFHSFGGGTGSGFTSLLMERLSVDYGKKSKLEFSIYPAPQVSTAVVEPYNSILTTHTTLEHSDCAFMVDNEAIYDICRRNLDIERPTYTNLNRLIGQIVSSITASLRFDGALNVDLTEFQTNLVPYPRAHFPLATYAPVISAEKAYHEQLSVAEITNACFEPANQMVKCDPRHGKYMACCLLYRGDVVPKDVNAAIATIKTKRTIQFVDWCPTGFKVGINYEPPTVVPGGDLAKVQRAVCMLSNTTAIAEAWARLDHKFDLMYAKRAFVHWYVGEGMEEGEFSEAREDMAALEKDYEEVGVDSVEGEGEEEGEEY
Chain of KIF18A (P02554 whole entry partner): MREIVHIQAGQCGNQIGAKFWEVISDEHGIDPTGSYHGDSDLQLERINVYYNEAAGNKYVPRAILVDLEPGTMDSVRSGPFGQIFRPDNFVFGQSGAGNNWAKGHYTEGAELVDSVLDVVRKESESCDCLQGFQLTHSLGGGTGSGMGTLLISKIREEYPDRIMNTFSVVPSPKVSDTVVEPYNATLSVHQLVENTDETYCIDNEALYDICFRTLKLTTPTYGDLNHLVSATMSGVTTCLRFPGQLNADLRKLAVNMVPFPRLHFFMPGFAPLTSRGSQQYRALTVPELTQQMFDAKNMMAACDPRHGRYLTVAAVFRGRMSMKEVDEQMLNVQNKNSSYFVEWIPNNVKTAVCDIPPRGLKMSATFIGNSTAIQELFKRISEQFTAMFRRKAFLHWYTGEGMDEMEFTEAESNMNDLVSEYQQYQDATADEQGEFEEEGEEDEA

IC50 ([1]; OVCAR-3, 96 h, 4-day assay) [nM]	IC50 [2] [nM]	IC50 ([1]; OVCAR-3, 168 h, 7-day assay) [nM]	IC50 [1, 3] [nM]	Structure (SMILES)
> 1000	> 1000			Cc1cc(NC(=O)c2ccc(NS(=O)(=O)CCO)cc2N2CC[C@]3(CO)C[C@@H]3C2)nc(N2CCC(F)(F)CC2)n1 [Example 40]
	< 100	500 to 1000		O=C(Nc1cccc(N2CCC(F)(F)CC2)n1)c1c(F)cc(NS(=O)(=O)CCO)cc1N1CC[C@]2(C(F)F)C[C@@H]2C1 [Example 83]
	> 1000	> 1000		Cc1cc(NC(=O)c2ccc(NS(=O)(=O)CCO)cc2N2CC[C@@]3(C(F)F)C[C@H]3C2)nc(OC[C@@H](O)C(F)(F)F)n1 [Example 74]
< 100	< 100			Cc1cc(NC(=O)c2ccc(NS(=O)(=O)CCO)cc2N2CC[C@]3(C(F)F)C[C@@H]3C2)nc(N2CCC(F)(F)CC2)n1 [Example 29a, 2-((1S,6R)-6-(difluoromethyl)-3-azabicyclo[4.1.0]heptan-3-yl)-N-(2-(4,4-difluoropiperidin-1-yl)-6-methylpyrimidin-4-yl)-4-((2-hydroxyethyl)sulfonamido)benzamide]
	< 100	100 to 500		O=C(Nc1ccnc(C2CCC(F)(F)CC2)n1)c1ccc(NS(=O)(=O)CCO)cc1N1CC[C@@]2(C(F)F)C[C@H]2C1 [Example 76]
	< 100	< 100		O=C(Nc1cccc(N2CCC(F)(F)CC2)n1)c1ccc(NS(=O)(=O)CCO)cc1N1CC[C@]2(C(F)F)C[C@@H]2C1 [Example 64]
	< 100	500 to 1000		CO[C@@]12CCN(c3cc(NS(=O)(=O)CCO)ccc3C(=O)Nc3cc(C)nc(N4CCC(F)(F)CC4)n3)C[C@@H]1C2 [Example 82]
	< 100		100 to 500	Cc1cc(NC(=O)c2c(F)cc(NS(=O)(=O)CCO)cc2N2CC[C@]3(C)C[C@@H]3C2)nc(N2CCC(F)(F)CC2)n1 [Example 38]
	< 100		< 100	Cc1cc(NC(=O)c2ccc(NS(=O)(=O)CCO)cc2N2CCC3(C(F)F)CC3C2)nc(N2CCC(F)(F)CC2)n1 (stereo not drawn) [Example 41]
> 1000	100 to 500			Cc1cc(NC(=O)c2ccc(NS(=O)(=O)CCO)cc2N2CCC3(CO)CC3C2)nc(N2CCC(F)(F)CC2)n1 (stereo not drawn) [Example 30, N-(2-(4,4-difluoropiperidin-1-yl)-6-methylpyrimidin-4-yl)-4-((2-hydroxyethyl)sulfonamido)-2-(6-(hydroxymethyl)-3-azabicyclo[4.1.0]heptan-3-yl)benzamide]
	< 100	500 to 1000		Cc1cc(NC(=O)c2ccc(NS(C)(=O)=O)cc2N2CC[C@@]3(C(F)F)C[C@H]3C2)nc(N2CCC(F)(F)CC2)n1 [Example 55]
	< 100	500 to 1000		CO[C@]12CCN(c3cc(NS(=O)(=O)CCO)ccc3C(=O)Nc3cc(C)nc(N4CCC(F)(F)CC4)n3)C[C@H]1C2 [Example 81]
	100 to 500	> 1000		Cc1cc(NC(=O)c2ccc(NS(=O)(=O)NCCO)cc2N2CC[C@@]3(C(F)F)C[C@H]3C2)nc(N2CCC(F)(F)CC2)n1 [Example 57]
	> 1000	> 1000		Cc1cc(NC(=O)c2ccc(NS(=O)(=O)CCO)cc2N2CC[C@]3(C(F)F)C[C@@H]3C2)nc(OC[C@@H](O)C(F)(F)F)n1 [Example 73]
	100 to 500	100 to 500		Cc1cc(NC(=O)c2ccc(NS(=O)(=O)CCO)cc2N2CC[C@@]3(C(C)(F)F)C[C@H]3C2)nc(N2CCC(F)(F)CC2)n1 [Example 80]
	> 1000	> 1000		Cc1cc(NC(=O)c2ccc(NS(=O)(=O)CCO)cc2N2CC[C@@]3(C(F)F)C[C@H]3C2)nc(OC[C@H](O)C(F)(F)F)n1 [Example 68]
	< 100	100 to 500		Cc1cc(NC(=O)c2ccc(S(=O)(=O)NCCO)cc2N2CC[C@@]3(C)C[C@H]3C2)nc(N2CCC(F)(F)CC2)n1 [Example 53]
	< 100	100 to 500		O=C(Nc1ccnc(N2CCC(F)(F)CC2)n1)c1ccc(NS(=O)(=O)CCO)cc1N1CC[C@@]2(C(F)F)C[C@H]2C1 [Example 61]
	< 100	100 to 500		Cc1cc(NC(=O)c2ccc(NS(=O)(=O)CCO)cc2N2CC[C@@]3(C(F)F)C[C@H]3C2)nc(N2CCC(F)(F)CC2)n1 [Example 59]
	< 100	100 to 500		Cc1cc(NC(=O)c2ccc(S(=O)(=O)NCCO)cc2N2CC[C@]3(C)C[C@@H]3C2)nc(N2CCC(F)(F)CC2)n1 [Example 52]

Structure (SMILES)	IC50 ([1]; OVCAR-3, 96 h, 4-day assay) [nM]	IC50 [2] [nM]	IC50 ([1]; OVCAR-3, 168 h, 7-day assay) [nM]	IC50 [1, 3] [nM]
Cc1cc(NC(=O)c2ccc(NS(=O)(=O)CCO)cc2N2CC[Si](C)(C)CC2)nc(N2CCC(F)(F)CC2)c1F [Example 133]		< 100	100 to 500	
Cc1cc(NC(=O)c2cc(F)c(NS(=O)(=O)CCO)cc2N2CC[Si](C)(C)CC2)nc(N2CCC(F)(F)CC2)n1 [Example 103]		< 100	100 to 500	
C[Si]1(C)CCN(c2cc(S(=O)(=O)NCCO)ccc2C(=O)Nc2cccc(OCCC(F)(F)F)n2)CC1 [Example 99]		< 100	< 100	
C[Si]1(C)CCN(c2cnccc2C(=O)Nc2cccc(S(=O)(=O)N3CCC(F)(F)CC3)c2)CC1 [Example 27]	> 1000	> 1000		
C[Si]1(C)CCN(c2cc(NS(=O)(=O)CCO)ccc2C(=O)Nc2ccnc(C3CC3)n2)CC1 [Example 15]	> 1000	< 100		
Cc1cc(NC(=O)c2ncc(NS(=O)(=O)CCO)nc2N2CC[Si](C)(C)CC2)nc(N2CCC(F)(F)CC2)n1 [Example 105]		> 1000	> 1000	
C[Si]1(C)CCN(c2cc(NS(=O)(=O)NCCO)ccc2C(=O)Nc2cccc(OC[C@H](O)C(F)(F)F)n2)CC1 [Example 126]		< 100	100 to 500	
CC(C)(CO)Nc1ccc(C(=O)Nc2cccc(S(=O)(=O)C3CCCC3)c2)c(N2CC[Si](C)(C)CC2)n1 [Example 97]		> 1000	> 1000	
CNCCS(=O)(=O)Nc1ccc(C(=O)Nc2cccc(N3CCC(F)(F)CC3)n2)c(N2CC[Si](C)(C)CC2)c1 [Example 101]		< 100	100 to 500	
C[Si]1(C)CCN(c2cc(S(=O)(=O)NCCO)ccc2C(=O)Nc2cccc(OC[C@@H](O)C(F)(F)F)n2)CC1 [Example 131]		< 100	< 100	
C[Si]1(C)CCN(c2cc(NS(=O)(=O)CCO)ccc2C(=O)Nc2cccc(C3(C(F)(F)F)N=N3)c2)CC1 [Example 87]		< 100	100 to 500	
C[Si]1(C)CCN(c2cc(NS(=O)(=O)CCO)ccc2C(=O)Nc2cccc(OC[C@H](O)C(F)(F)F)n2)CC1 [Example 122]		< 100	< 100	
C[Si]1(C)CCN(c2cc(NS(C)(=O)=O)ccc2C(=O)Nc2cccc(OC[C@H](O)C(F)(F)F)n2)CC1 [Example 128]		< 100	100 to 500	
C[Si]1(C)CCN(c2cc(S(=O)(=O)CCO)ccc2C(=O)Nc2cccc(OC[C@H](O)C(F)(F)F)n2)CC1 [Example 130]		< 100	100 to 500	
C[Si]1(C)CCN(c2cc(NS(=O)(=O)CCO)cc(F)c2C(=O)Nc2cccc(OC[C@H](O)C(F)(F)F)n2)CC1 [Example 124]		< 100	100 to 500	
C[Si]1(C)CCN(c2cc(NS(=O)(=O)CCO)cc(F)c2C(=O)Nc2cccc(OC[C@@H](O)C(F)(F)F)n2)CC1 [Example 123]		< 100	500 to 1000	

— patent US20250197428A1, “INHIBITORS OF KIF18A AND USES THEREOF” (ACCENT THERAPEUTICS, INC., priority 2022, published 2025)
